Measurements as given in patent US12011444B2, “N-substituted indole derivatives as PGE2 receptor modulators” (Idorsia Pharmaceuticals Ltd, priority 2015, dated 2024).
pIC50: −log10 of the molar value. Read-outs that look alike come from different tables or passages of the source.

Columns and labels:
EP4 = EP4 (Homo sapiens (Human), UniProt P35408); assay: hEP4 cAMP assay (BT549 breast cancer cells, HTRF cAMP); assay type: cell-based; conditions: antagonistic activity; mean values where measured multiple times
Method: Plate is pre-incubated 45 minutes at room temperature. Subsequently, 2.5 microliters of PGE2 (final conc. 6 nM) are transferred into the assay plate. Plate is incubated 30 minutes at room temperature.

EP2 [1] = target: T1, EP2 (Homo sapiens (Human), UniProt P43116); assay: cell-based;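 also: antagonism of PGE2-stimulated cAMP accumulation in SF295 human glioblastoma cells with endogenous EP2, cAMP read by HTRF, expressed relative to DMSO control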
EP2 [2] = target: T1, EP2

EP4, sequence (P35408 whole entry): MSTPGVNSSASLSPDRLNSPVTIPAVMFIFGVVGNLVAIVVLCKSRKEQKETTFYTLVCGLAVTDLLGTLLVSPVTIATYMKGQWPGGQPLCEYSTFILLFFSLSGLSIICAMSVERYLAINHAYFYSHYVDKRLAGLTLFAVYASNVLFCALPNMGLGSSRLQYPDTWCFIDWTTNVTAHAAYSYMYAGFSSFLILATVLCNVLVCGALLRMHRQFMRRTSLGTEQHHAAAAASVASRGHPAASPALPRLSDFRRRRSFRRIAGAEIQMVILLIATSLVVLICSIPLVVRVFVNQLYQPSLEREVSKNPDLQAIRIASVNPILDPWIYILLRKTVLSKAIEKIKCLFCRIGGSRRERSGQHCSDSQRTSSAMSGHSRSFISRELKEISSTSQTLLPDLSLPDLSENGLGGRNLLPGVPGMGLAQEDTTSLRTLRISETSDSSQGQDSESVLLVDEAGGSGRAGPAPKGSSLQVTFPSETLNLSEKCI
T1 sequence (P43116 whole entry): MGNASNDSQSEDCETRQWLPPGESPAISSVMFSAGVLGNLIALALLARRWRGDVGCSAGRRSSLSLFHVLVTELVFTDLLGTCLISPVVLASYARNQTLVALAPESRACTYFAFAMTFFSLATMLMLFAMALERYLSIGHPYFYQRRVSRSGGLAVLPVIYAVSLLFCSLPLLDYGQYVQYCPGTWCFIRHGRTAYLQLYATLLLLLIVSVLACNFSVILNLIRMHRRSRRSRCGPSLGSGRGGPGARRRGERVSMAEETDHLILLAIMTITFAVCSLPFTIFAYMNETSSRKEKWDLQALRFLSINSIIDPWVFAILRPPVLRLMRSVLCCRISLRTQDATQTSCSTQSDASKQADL

Structure (SMILES)	pIC50 (EP4)	pIC50 (EP2 [1])	pIC50 (EP2 [2])
CCOc1cc(-c2cc(NCCn3c(C)cc4c(OC)ccc(F)c43)ncn2)ccc1C(O)C(F)(F)F (racemic) [compound 571]	6.29	6.83	
CCOc1cc(-c2cc(NCC(C)n3c(C)cc4c(OC)ccc(F)c43)ncn2)ccc1C(=O)O (racemic) [Example 794, rac-2-Ethoxy-4-{6-[2-(7-fluoro-4-methoxy-2-methyl-indol-1-yl)-propylamino]-pyrimidin-4-yl}-benzoic acid]	6.10	6.51	
Cc1ccc(F)c2c1cc(C)n2CCNc1cc(-c2ccc3c(c2)C(CC(C)C)NC3=O)ncn1 (racemic) [compound 468]	6.58	7.23	
COc1cccc2c1cc(C)n2CCNc1cc(-c2ccc3c(c2)C(CC(C)C)NC3=O)ncn1 (racemic) [compound 461]	6.65	7.62	
COc1ccc(F)c2c1cc(C)n2CCNc1cc(-c2ccc3c(c2)C(CC(C)C)NC3=O)ncn1 (racemic) [compound 474]	6.65	7.66	
COc1ccc(F)c2c1cc(C)n2C(C)CNc1cc(-c2ccc(C(=O)O)c(CC(C)C)c2)ncn1 (racemic) [Example 795, rac-4-{6-[2-(7-Fluoro-4-methoxy-2-methyl-indol-1-yl)-propylamino]-pyrimidin-4-yl}-2-isobutyl-benzoic acid]	6.51	7.07	
CCCC1NC(=O)c2ccc(-c3cc(NCCn4c(C)cc5c(OC)ccc(F)c54)ncn3)cc21 (racemic) [compound 465]	7.12	7.77	
CCOc1cc(-c2cc(NCCn3c(Cl)cc4c(OC)ccc(F)c43)ncn2)ccc1C(=O)O [Example 776, 4-{6-[2-(2-Chloro-7-fluoro-4-methoxy-indol-1-yl)-ethylamino]-pyrimidin-4-yl}-2-ethoxy-benzoic acid]	7.36		8.22
COc1cncc(-c2ccc(-c3cc(NCCn4c(C)cc5c(OC)cc(F)cc54)ncn3)cc2)n1 [Example 761, [2-(6-Fluoro-4-methoxy-2-methyl-indol-1-yl)-ethyl]-{6-[4-(6-methoxy-pyrazin-2-yl)-phenyl]-pyrimidin-4-yl}-amine]	6.79		7.40
CCOc1cc(-c2cc(NCCn3c(C)cc4c(OC)ccc(F)c43)ncn2)ccc1CNC1CCC1 [compound 597]	6.14		6.76
COc1ccc(F)c2c1cc(C)n2CCNc1cc(-c2ccc(-c3cc(C)no3)cc2)ncn1 [compound 716, [2-(7-Fluoro-4-methoxy-2-methyl-indol-1-yl)-ethyl]-{6-[4-(3-methyl-isoxazol-5-yl)-phenyl]-pyrimidin-4-yl}-amine]	6.29		7.92
COc1ccc(F)c2c1cc(C)n2CCNc1cc(-c2ccc(C(=O)O)c(Oc3ccc(F)cc3)c2)ncn1 [compound 654]	6.50		7.59
Cc1cc2c(F)cc(F)c(F)c2n1CCNc1cc(-c2ccc(C(=O)O)c(CC(C)C)c2)ncn1 [compound 505]	6.17		7.68
COc1cc(F)cc2c1cc(C)n2CCNc1cc(-c2ccc(-c3nc(C)cs3)cc2)ncn1 [Example 758, [2-(6-Fluoro-4-methoxy-2-methyl-indol-1-yl)-ethyl]-{6-[4-(4-methyl-thiazol-2-yl)-phenyl]-pyrimidin-4-yl}-amine]	6.95		7.49
Cc1cc2ccccc2n1CCNc1cc(-c2ccc(-c3nccs3)cc2)ncn1 [Example 764, [2-(2-Methyl-indol-1-yl)-ethyl]-[6-(4-thiazol-2-yl-phenyl)-pyrimidin-4-yl]-amine]	6.09		8.10
COc1ccc(F)c2c1cc(C)n2CCNc1cc(-c2ccc(S(N)(=O)=O)c(C(F)(F)F)c2)ncn1 [compound 567, 4-{6-[2-(7-Fluoro-4-methoxy-2-methyl-indol-1-yl)-ethylamino]-pyrimidin-4-yl}-2-trifluoromethyl-benzenesulfonamide]	7.05		7.77
COc1cc(F)cc2c1cc(C)n2CCNc1cc(-c2ccc3ccncc3c2)ncn1 [compound 728]	6.96		7.44
Cc1cc2c(F)ccc(C#N)c2n1CCNc1cc(-c2ccc(C(=O)O)c(CC(C)C)c2)ncn1 [compound 482]	6.01		6.16
COc1cc(F)cc2c1cc(C)n2CCNc1cc(-c2cc(C(F)(F)F)c(C(=O)O)s2)ncn1 [compound 447]	7.57		7.55
CCCc1cc(-c2cc(NCCn3c(C)cc4c(OC)ccc(Cl)c43)ncn2)cc(OCC)c1C(=O)O [compound 633]	6.12		7.22

Structure (SMILES)	pIC50 (EP4)	pIC50 (EP2 [1])	pIC50 (EP2 [2])
COc1ccc(F)c2c1cc(C)n2CCNc1cc(-c2ccc(C(=O)O)c(NCC(F)(F)F)c2)ncn1 [compound 588, 4-{6-[2-(7-Fluoro-4-methoxy-2-methyl-indol-1-yl)-ethylamino]-pyrimidin-4-yl}-2-(2,2,2-trifluoro-ethylamino)-benzoic acid]	7.04		8.70
CCOc1cc(-c2cc(NCCn3c(C)cc4c(OC)ccc(F)c43)ncn2)cc(Cl)c1C(=O)O [compound 489]	6.99		7.60
COc1ccc(F)c2c1cc(C)n2CCNc1cc(-c2cc(Cl)c(C(=O)O)c(OCC(F)(F)F)c2)ncn1 [compound 725]	7.24		8.22
COc1cc(F)c(F)c2c1cc(C)n2CCNc1cc(-c2ccc(-c3cc(C)no3)cc2)ncn1 [compound 717]	6.28		6.62
CCNc1cc(-c2cc(NCCn3c(C)cc4c(OC)cccc43)ncn2)ccc1-c1nnn[nH]1 [compound 667, {6-[3-Ethylamino-4-(1H-tetrazol-5-yl)-phenyl]-pyrimidin-4-yl}-[2-(4-methoxy-2-methyl-indol-1-yl)-ethyl]-amine]	7.77		8.70
COc1cc(F)cc2c1cc(C)n2CCNc1cc(-c2ccc(-c3ccon3)cc2)ncn1 [compound 558]	6.95		7.80
COc1cc(F)cc2c1cc(C)n2CCNc1cc(-c2ccc(C(=O)O)c(OC(F)(F)F)c2)ncn1 [compound 604]	6.49		7.80
CCOc1cc(-c2cc(NCCn3c(C)cc4c(OC)c(Cl)cc(F)c43)ncn2)ccc1C(=O)O [compound 491]	6.15		6.12
COc1cc(F)cc2c1cc(C)n2CCNc1cc(-c2ccc(-c3ncc(F)cn3)cc2)ncn1 [Example 762, [2-(6-Fluoro-4-methoxy-2-methyl-indol-1-yl)-ethyl]-{6-[4-(5-fluoro-pyrimidin-2-yl)-phenyl]-pyrimidin-4-yl}-amine]	6.52		7.01
CCOc1cc(-c2cc(NCCn3c(C)cc4c(F)c(F)cc(F)c43)ncn2)ccc1C(=O)O [compound 449]	6.62		8.40
COc1cc(F)cc2c1cc(C)n2CCNc1cc(-c2ccc(C(=O)O)c(CC(C)C)c2)nc(C)n1 [compound 623]	6.89		7.35
CCOc1cc(-c2cc(NCCn3c(C)cc4c(OC)c(Cl)cc(F)c43)ncn2)sc1C(=O)O [compound 409]	6.84		6.46
CCOc1cc(-c2cc(NCCn3c(C)cc4c(OC)ccc(F)c43)nc(C)n2)ccc1C(=O)O [compound 494]	6.21		7.60
CCCc1cc(-c2cc(NCCn3c(C)cc4c(OC)ccc(F)c43)ncn2)cc(OC)c1C(=O)O [compound 619]	6.60		8.05
Cc1ccc(F)c2c1cc(C)n2CCNc1cc(-c2ccc(-n3cncn3)cc2)ncn1 [compound 741, [2-(7-Fluoro-2,4-dimethyl-indol-1-yl)-ethyl]-[6-(4-[1,2,4]triazol-1-yl-phenyl)-pyrimidin-4-yl]-amine]	6.30		7.43
COc1cc(-c2cc(NCCn3c(C)cc4c(OC)ccc(F)c43)ncn2)ccc1-c1nnn[nH]1 [compound 683, [2-(7-Fluoro-4-methoxy-2-methyl-indol-1-yl)-ethyl]-{6-[3-methoxy-4-(1H-tetrazol-5-yl)-phenyl]-pyrimidin-4-yl}-amine]	6.79		8.22
COc1cc(F)cc2c1cc(C)n2CCNc1cc(-c2ccc(-c3cnccn3)cc2)ncn1 [Example 750, [2-(6-Fluoro-4-methoxy-2-methyl-indol-1-yl)-ethyl]-[6-(4-pyrazin-2-yl-phenyl)-pyrimidin-4-yl]-amine]	7.04		7.80
COc1cc(F)cc2c1cc(C)n2CCNc1cc(-c2ccc(-c3ncc(C)n3C)cc2)ncn1 [Example 752, {6-[4-(1,5-Dimethyl-1H-imidazol-2-yl)-phenyl]-pyrimidin-4-yl}-[2-(6-fluoro-4-methoxy-2-methyl-indol-1-yl)-ethyl]-amine]	6.20		7.07
Cc1cc2c(Cl)cc(Cl)cc2n1CCNc1cc(-c2ccc(-c3noc(=O)[nH]3)cc2)ncn1 [compound 681, 3-(4-{6-[2-(4,6-Dichloro-2-methyl-indol-1-yl)-ethylamino]-pyrimidin-4-yl}-phenyl)-4H-[1,2,4]oxadiazol-5-one]	6.61		7.85
Cc1cc(F)cc2c1cc(C)n2CCNc1cc(-c2ccc(-c3nnc(N)s3)cc2)ncn1 [compound 569]	7.11		7.77
